Data taken from patent US5994336A, “Method of inhibiting proliferation of cells by administering an aminosterol compound” (priority 1995, dated 1999).
Entries after “also recorded” stand apart in the source; their conditions may differ.

Tests used:
NHE1β = details: nucleated erythrocyte isoform; cited from earlier work
rabbit NHE3 [1] = target: T1, rabbit NHE3 (Oryctolagus cuniculus, UniProt P26432); details: existing agents such as amiloride; cited from earlier work
T1 construct: BCECF internal pH recovery

[2] = Hematological profile of L1210-inoculated mice
Excerpt: C57B mice were inoculated with L1210 lymphoblastic leukemia cells at an inoculum that causes leukemia in 100% of animals.

vitelline capillaries = assay: Chick embryo vitelline capillary regression assay; format: in vivo
Method: Using the chick embryo vitelline capillaries assay, compounds were tested for their ability to induce capillary regression. Each compound was applied in 0.1 ml of 15% Ficol 400 and PBS onto the embryo, and vascular regression was assessed after 60 minutes.
The 3-day chick embryo consists of an embryonic disc from which numerous vessels emerge and return, forming a "FIG. 8"-shaped structure--the embryo in the center with vascular loops extending outward over both poles. […] Following a lag period of around 15 minutes, the constriction of continuity between capillary and secondary vessels, generally on the "venous" side, was observed. Continued pulsatile blood flow progressed, resulting in a "swelling" of the blind tube, followed by a pinching off of the remaining connection and formation of an enclosed vascular sac resembling a "blood island." This process progressed until only the largest vessels remained intact.

[3] = test system: Xenopus tadpole, stage 59-60; assay: Tadpole assay; format: in vivo, Xenopus laevis; details: 10 μg/ml; for pharmacological response in tadpole (words): stage 59-60
Excerpt: For example, substances that destroy all of the animal's epithelium, both adult and embryonic, could be regarded as toxic.
The volume of liquid is sufficient for the animal to swim freely and drink from the solution. […] If the volume of liquid is not sufficient to permit oral intake, the effects that are observed would result from absorption through the surface epithelium.
In another embodiment of this assay, a solution of a compound in water can be injected directly into the abdomen of the animal using standard techniques.
After an amount of time, typically about 60 minutes, the occlusion of blood flow through capillaries in the tadpole's tail are observed under an inverted microscope at a magnification of roughly 100×.
In the assay, each of the steroids was dissolved in 100 ml of distilled water at a concentration of 10 μg/ml. Stage 59-60 Xenopus tadpoles were introduced and evaluated by light microscopy and gross observation 1 hour later.

B16 melanoma [4] = assay: Suppression of growth of B16 melanoma in C57B mice; format: in vivo, mouse; details: subcutaneous; FIG. 6
Method: The growth of B16 melanoma in C57B mice is dependent upon neovascularization.
Using the growth of B16 melanoma cells in C57B mice, a recognized model for the evaluation of inhibitors of angiogenesis on the growth of cancers, the effects of subcutaneous, intraperitoneal and oral administration of squalamine were evaluated.

NHE = assay: Comparison of compound 319 with squalamine
Excerpt: Moreover, other aminosterols have shown anti-angiogenic activity. Compounds were subjected to a various assays, including the chick embryo capillary regression assay, the tadpole assay, the assay for inhibition of endothelial cord formation, and the assay for direct inhibition of NHE, as described above, to determine their utilities. As evident from the above data, correlation among the results from the chick, tadpole and in vitro inhibition of endothelial cell cord formation assays is excellent.
Through the application of these assays, compound 319 emerged as an attractive alternative to squalamine. […] Further properties of compound 319 are discussed below.

human melanoma = assay: Effect on growth of human melanoma (method of Baker et al.); format: cell-based; details: FIG. 17A
rabbit NHE3 [5] = target: T1, rabbit NHE3; format: cell-based; details: 10 μg/ml, acid preloaded; FIG. 10
[6] = test system: PHA-stimulated human lymphocytes; assay: Inhibition of mitogen (PHA)-stimulated growth of human T-cells; format: cell-based
Excerpt: Results are tabulated below.

[7] = test system: Human colon carcinoma HT29; assay: Growth inhibition in vitro (Table 7); format: cell-based; details: 10 μg/ml
Excerpt: (§1) As set forth in Table 7 below, all malignant tumors evaluated in tissue culture, endothelial cells and vascular smooth muscle cells were sensitive to inhibition. Thus, compound 1436 has application in the control of growth factor dependent proliferation of many types of tissue.

[8] = test system: Human colon carcinoma SW948; assay: Growth inhibition in vitro (Table 7); format: cell-based; details: 10 μg/ml
Excerpt: as §1

[9] = test system: Human coronary artery smooth muscle cells; assay: Growth inhibition in vitro (Table 7); format: cell-based; details: 10 μg/ml
Excerpt: as §1

Human melanoma WM 1617 = assay: Growth inhibition in vitro (Table 7); format: cell-based; details: 10 μg/ml
Excerpt: as §1

[10] = test system: Human microvascular endothelial cells; assay: Growth inhibition in vitro (Table 7); format: cell-based; details: 10 μg/ml
Excerpt: as §1

Lewis lung carcinoma = assay: Growth inhibition in vitro (Table 7); format: cell-based; details: 10 μg/ml
Excerpt: as §1

Murine B16 melanoma = assay: Growth inhibition in vitro (Table 7); format: cell-based; details: 10 μg/ml
Excerpt: as §1

Murine L1210 leukemia = assay: Growth inhibition in vitro (Table 7); format: cell-based; details: 10 μg/ml
Excerpt: as §1

[11] = test system: bovine pulmonary endothelial cells; assay: Growth inhibition in vitro (Table 7); format: cell-based; details: 10 μg/ml
Excerpt: as §1

[12] = test system: human umbilical venous endothelial cells; assay: Growth inhibition in vitro (Table 7); format: cell-based; details: 10 μg/ml
Excerpt: as §1

[13] = test system: Human ovarian carcinoma SKOV3; assay: Growth inhibition in vitro (Table 7); format: cell-based; details: 10 μg/ml
Method: as §1
Using the assay described above, the anticancer effects of compound 1437 against several cancer lines was assessed.

B16 melanoma [14] = assay: Synergistic inhibition of tumor growth, B16 melanoma model; format: in vivo, mouse
Method: Based on the idea that tumor growth involves both the clonal expansion of a malignant cell along with the development of a supporting vascular supply, a combination of compound 1436 with squalamine was tested to determine whether it would achieve a synergistic effect on solid tumor growth. This concept was evaluated in the B16 melanoma model.
Animals were implanted with B16 melanoma followed by treatment with compound 1436 or 1256 administered in a combined schedule or separately. […] Thus, a combination of these two compounds achieves a therapeutic benefit in tumors dependent on neovascularization that may prevent metastatic spread.

[15] = Effect on fasting blood glucose in mice; format: in vivo, mouse; details: i.v.
Method: To study the effect of steroid administrator or the NHE responsible for secretion of insulin, several of the aminosterols from shark liver were administered to fasting mice. Male CD-1 mice were assigned to one of four treatment groups. Whole blood glucose was tested using glucometer (Lifescan Glucometer II and One Touch test strips). Statistical analysis was via one-way analysis of variance (ANOVA) followed by subsequent Bonferonni's t-test.

[16] = test system: human coronary artery smooth muscle; assay: Proliferation of human coronary artery smooth muscle in vitro; format: cell-based
Excerpt: Aminosterols of the invention may also have utility in inhibiting the growth factor mediated proliferation of smooth muscle within the artery. Following coronary angioplasty, reocclusion commonly occurs, secondary to reparative proliferation of the vascular smooth muscle within the wall of the surgically manipulated blood vessel. This process generally takes place over the course of 7-10 days. To evaluate whether an agent could prevent the growth factor mediated proliferation of smooth muscle within the artery, compound 1436 was evaluated in vitro for its effect on the proliferation of human coronary artery smooth muscle. Results for compound 1436 are shown in FIG. 13, and those for squalamine are shown in FIG. 14, with FIG. 15 being a composite logarithmic plot.

[17] = Effect on growth and weight gain of C57B mice; format: in vivo, mouse
Method: Animals were dosed QTD (i.p.) starting on Day 1. […] Animals receiving 5 mg/kg QTD experienced about a 50% reduction in growth, compared to untreated controls, while animals receiving 1 mg/kg QTD were affected by about 10%. […] They appeared very much like hypophysectamized animals might appear.

[18] = Effect on arterial resistance in the rat after i.v. administration; format: in vivo
Method: A 200-g rat was catheterized in the right carotid artery, and the compound was introduced over a ten-second period to a total dosage of 5 mg/kg. Within 30 seconds, the mean arterial pressure had fallen from about 100 mm Hg to about 70 mm Hg, with a marked reduction in pulse pressure from about 40 mm to about 10 mm. […] If cardiac output was basically unaffected, reduction in blood pressure would have resulted principally from a reduction in system resistance.
At that time, 40 μg of noradrenaline was introduced.

[19] = test system: heart of a juvenile Xenopus laevis frog; assay: Persistence of beating of isolated frog heart (ischemia); details: 10 μg/ml, adrenaline 50 μg/ml, room temperature; about one hour without compound
Method: To determine if compound 1436 has such utility, the following experiment was performed. The heart of a juvenile Xenopus laevis frog was dissected from the living animal. The heart was placed into a Petri dish containing Krebs-Ringer buffer with adrenaline 50 μg/ml, and examined with the naked eye. At room temperature, the heart continued beating in a coordinated fashion (atrial beat followed by ventricular beat) for about one hour. In the presence of 10 μg/ml of compound 1436, spontaneous beating persisted up to 24 hours.

[20] = test system: L1210 lymphoblastic leukemia; assay: Survival of mice bearing L1210 leukemia

T1 sequence (P26432 30-832): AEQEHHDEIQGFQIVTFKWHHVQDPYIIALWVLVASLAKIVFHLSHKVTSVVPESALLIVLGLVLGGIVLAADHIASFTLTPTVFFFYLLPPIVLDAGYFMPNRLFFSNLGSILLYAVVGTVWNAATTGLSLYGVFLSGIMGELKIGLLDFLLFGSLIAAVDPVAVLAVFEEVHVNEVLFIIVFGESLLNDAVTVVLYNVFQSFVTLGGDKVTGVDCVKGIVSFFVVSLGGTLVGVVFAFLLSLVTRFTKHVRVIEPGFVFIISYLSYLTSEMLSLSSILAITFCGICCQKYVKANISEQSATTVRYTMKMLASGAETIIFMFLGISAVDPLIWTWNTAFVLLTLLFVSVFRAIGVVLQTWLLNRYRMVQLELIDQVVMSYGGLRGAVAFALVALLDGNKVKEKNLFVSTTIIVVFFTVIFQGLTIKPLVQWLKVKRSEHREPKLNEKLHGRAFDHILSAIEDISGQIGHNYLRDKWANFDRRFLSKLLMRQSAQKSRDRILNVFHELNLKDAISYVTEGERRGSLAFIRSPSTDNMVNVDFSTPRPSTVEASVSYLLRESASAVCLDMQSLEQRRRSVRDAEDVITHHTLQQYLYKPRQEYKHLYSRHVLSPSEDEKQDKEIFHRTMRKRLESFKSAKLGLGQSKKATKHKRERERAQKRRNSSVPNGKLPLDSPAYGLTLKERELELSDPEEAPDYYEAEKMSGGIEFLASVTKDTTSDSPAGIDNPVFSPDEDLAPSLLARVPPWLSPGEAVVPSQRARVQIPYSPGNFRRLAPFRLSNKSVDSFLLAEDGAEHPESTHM

N=C(N)NC(=O)c1nc(Cl)c(N)nc1N [Amiloride]
inhibition of NHE1β (NHE1β): inhibited by high concentrations | effect on Vmax of NHE3 (existing agents) (rabbit NHE3 [1]): affected only Vmax

N.N.[Cl][Pt][Cl] [Cisplatin]
hematological profile [2]: profound anemia by day 28

C[C@H](CCC(=O)O)[C@H]1CC[C@H]2[C@@H]3CC[C@H]4C[C@@H](NCCCNCCCCN)CC[C@]4(C)[C@H]3CC[C@]12C [Compound 319]
activity on vitelline capillaries (vitelline capillaries): especially active | pharmacological response in tadpole (words) [3]: common vascular occlusive effect | control of B16 melanoma (B16 melanoma [4]): control of B16 in C57B mice to an extent almost comparable to squalamine | potency as an NHE inhibitor compared with squalamine (NHE): superior to squalamine

CC(C)CCC[C@@H](C)[C@H]1CC[C@H]2[C@@H]3CC[C@H]4C[C@@H](NCCCNCCCCNCCCN)CC[C@]4(C)[C@H]3CC[C@]12C [Compound 353]
activity on vitelline capillaries (vitelline capillaries): no effect on the chick embryo capillary bed | pharmacological response in tadpole (words) [3]: effects like those produced by compound 1436 | time course of effect on growth of melanoma (human melanoma): most pronounced over 48 hours, with less of an effect noted within the first 12 hours of incubation

CC(C)[C@@H](CC[C@@H](C)[C@H]1CC[C@H]2[C@@H]3[C@H](O)C[C@H]4C[C@@H](NCCCNCCCCNCCCN)CC[C@]4(C)[C@H]3CC[C@]12C)OS(=O)(=O)O [Compound 1436]
inhibition of rabbit NHE3 (rabbit NHE3 [5]): found to inhibit rabbit NHE3 | activity on vitelline capillaries (vitelline capillaries): causes vitelline capillary regression with about the same potency as squalamine | tissues or functions not affected in tadpole [3]: No effects are observed on epithelial cell integrity, vascular flow, erythrocyte volume, tissue integrity, muscle fiber striation, or GI tract activity | pharmacological response in tadpole (words) [3]: Gradual reduction in overall activity. Heart beat remained strong, suggesting nervous system depression. Melanocytes over head and tail began to swell, first exhibiting visibly distinct nuclei, followed by rupture into fragments | pharmacological response in tadpole (words) ([3]; listed as compound 1436): common vascular occlusive effect; also recorded: dramatic disruption of melanocytes over its head, trunk, and tail, along with depression of its nervous system | inhibition of blast transformation [6]: inhibited blast transformation most potently | inhibition in vitro [7]: INHIBITED | inhibition in vitro [8]: INHIBITED | inhibition in vitro [9]: INHIBITED | inhibition in vitro (Human melanoma WM 1617): INHIBITED | inhibition in vitro [10]: INHIBITED | inhibition in vitro (Lewis lung carcinoma): INHIBITED | inhibition in vitro (Murine B16 melanoma): INHIBITED | inhibition in vitro (Murine L1210 leukemia): INHIBITED | inhibition in vitro [11]: INHIBITED | inhibition in vitro [12]: INHIBITED | inhibition in vitro [13]: INHIBITED | effect compared with combination (B16 melanoma [14]; compound 1436 alone in a tolerable schedule): Neither administration of squalamine at 15 mg/kg/day nor compound 1436 alone in a tolerable schedule could achieve this effect | impact on tumor volume (B16 melanoma [14]; compound 1436 alone, 10 mg/kg/every 3 days, FIG. 12): no significant impact on tumor volume | blood glucose effect [15]: caused hyperglycemia in mice | suppression of growth in vitro ([16]; FIG. 15): suppress in vitro the growth of human coronary artery smooth muscle | viability at quiescent concentration ([16]; about 11 μg/ml): without loss of viability | reduction in growth ([17]; 5 mg/kg QTD i.p., compared to untreated controls): ~50% | reduction in growth ([17]; 10 mg/kg QTD i.p.): almost completely inhibited | apparent health of treated animals ([17]; i.p.): all were active, normally proportioned, not-cachectic, and in excellent apparent clinical health | reversibility ([18]; 40 μg noradrenaline at 30 minutes): readily reversible | pulse pressure after dose ([18]; 5 mg/kg i.v., within 30 seconds, from about 40 mm): about 10 mm | mean arterial pressure after dose ([18]; 5 mg/kg i.v., within 30 seconds, from about 100 mm Hg): about 70 mm Hg | persistence of pressure effect ([18]; followed for 30 minutes): without significant change | persistence of spontaneous beating [19]: up to 24 hours | survival ([20]; highest dose, 10 mg/kg every 3 days i.p., FIG. 11): significant prolongation of life | toxicity in leukemic mice ([20]; mouse, in vivo): without unfavorable toxicity
